Experimental data reported in ChEMBL document CHEMBL5257047, “Synthesis and Anti-Inflammatory Activity of the Natural Cyclooxygenase-2 Inhibitor Axinelline A and Its Analogues” (J Nat Prod, 2023).
Each block holds one compound with its values, some of them ahead of it. Activity calls are given as the source filed them. The rule behind the calls is not given here.

Assays:
[1] = target: T1, Prostaglandin G/H synthase 1 (Ovis aries) (UniProt P05979); experiment: Inhibition of ovine COX-1 using arachidonic acid as substrate at 10 uM preincubated with compound for 5 mins followed by substrate addition and measured after 2 mins by fluorescence spectrum analysis; conditions: time 7.0 min
T1 sequence (whole entry): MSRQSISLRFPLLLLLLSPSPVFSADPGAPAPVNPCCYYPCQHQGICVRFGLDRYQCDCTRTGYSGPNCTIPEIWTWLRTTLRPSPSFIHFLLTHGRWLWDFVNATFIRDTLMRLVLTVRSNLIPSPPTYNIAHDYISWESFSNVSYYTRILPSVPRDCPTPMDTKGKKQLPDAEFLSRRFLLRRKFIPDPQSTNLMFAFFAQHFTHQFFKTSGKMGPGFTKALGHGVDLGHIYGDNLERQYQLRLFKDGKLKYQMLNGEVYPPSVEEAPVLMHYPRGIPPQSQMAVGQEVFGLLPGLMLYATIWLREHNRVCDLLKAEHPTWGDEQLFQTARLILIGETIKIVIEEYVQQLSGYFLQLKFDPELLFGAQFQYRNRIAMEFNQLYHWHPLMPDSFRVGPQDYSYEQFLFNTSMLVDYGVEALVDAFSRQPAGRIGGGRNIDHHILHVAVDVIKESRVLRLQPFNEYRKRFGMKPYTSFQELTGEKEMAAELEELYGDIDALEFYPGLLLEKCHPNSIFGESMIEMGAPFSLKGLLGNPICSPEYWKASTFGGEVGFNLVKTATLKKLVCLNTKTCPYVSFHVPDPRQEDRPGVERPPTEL

[2] = target: T2, Prostaglandin G/H synthase 2 (Homo sapiens) (UniProt P35354); experiment: Inhibition of recombinant human COX-2 using arachidonic acid as substrate at 10 uM preincubated with compound for 5 mins followed by substrate addition and measured after 2 mins by fluorescence spectrum analysis; conditions: time 7.0 min
T2 sequence (whole entry): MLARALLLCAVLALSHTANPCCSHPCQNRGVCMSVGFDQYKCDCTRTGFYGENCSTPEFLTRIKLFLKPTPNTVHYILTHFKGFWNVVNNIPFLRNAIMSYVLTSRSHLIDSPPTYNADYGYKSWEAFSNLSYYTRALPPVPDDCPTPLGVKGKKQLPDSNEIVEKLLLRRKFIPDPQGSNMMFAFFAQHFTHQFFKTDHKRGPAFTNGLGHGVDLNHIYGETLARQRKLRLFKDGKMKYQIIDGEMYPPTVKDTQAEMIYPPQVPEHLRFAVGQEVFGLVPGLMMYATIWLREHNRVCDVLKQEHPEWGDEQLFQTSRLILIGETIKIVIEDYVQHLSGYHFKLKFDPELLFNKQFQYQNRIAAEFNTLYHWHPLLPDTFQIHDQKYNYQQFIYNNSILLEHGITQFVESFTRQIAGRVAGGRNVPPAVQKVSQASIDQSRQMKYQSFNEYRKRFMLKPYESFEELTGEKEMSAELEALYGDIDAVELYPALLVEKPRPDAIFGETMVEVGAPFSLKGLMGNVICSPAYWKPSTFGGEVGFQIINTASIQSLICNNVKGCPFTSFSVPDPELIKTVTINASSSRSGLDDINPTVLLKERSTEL

[3] = test system: RAW264.7; experiment: Anti-inflammatory activity in mouse RAW264.7 cells assessed as decrease in LPS-induced NO production incubated for 24 hrs by Griess reagent based assay; format: functional, cell-based; conditions: dose 2-30 µM
[4] = test system: RAW264.7; experiment: Inhibition of IKK phosphorylation in LPS-stimulated mouse RAW264.7 cells preincubated with compound for 1 hrs followed by LPS-stimulation and measured after 30 mins by Western blot analysis; format: cell-based; conditions: dose 2-30 µM, time 1.5 hrs
[5] = test system: RAW264.7; experiment: Cytotoxicity against mouse RAW264.7 cells assessed as reduction in cell survival at 10 uM incubated for 24 hrs by MTT assay; format: toxicity, cell-based; conditions: raw264.7, 24 h
[6] = test system: L929; experiment: Cytotoxicity against mouse L929 cells assessed as reduction in cell survival at 10 uM incubated for 24 hrs by MTT assay; format: toxicity, cell-based; conditions: l929, 24 h
[7] = test system: L02; experiment: Cytotoxicity against human L02 cells assessed as reduction in cell survival at 10 uM incubated for 24 hrs by MTT assay; format: toxicity, cell-based; conditions: l02, 24 h
[8] = test system: RAW264.7; experiment: Anti-inflammatory activity in mouse RAW264.7 cells assessed as decrease in LPS-induced IL-1beta production incubated for 24 hrs by ELISA analysis; format: functional, cell-based; conditions: dose 2-30 µM
[9] = test system: RAW264.7; experiment: Anti-inflammatory activity in mouse RAW264.7 cells assessed as decrease in LPS-induced IL-6 production incubated for 24 hrs by ELISA analysis; format: functional, cell-based; conditions: dose 2-30 µM
[10] = test system: RAW264.7; experiment: Anti-inflammatory activity in mouse RAW264.7 cells assessed as decrease in LPS-induced iNOS protein expression incubated for 24 hrs by Western blot analysis; format: functional, cell-based; conditions: dose 2-10 µM
[11] = test system: RAW264.7; experiment: Inhibition of NF-kappaB phosphorylation in LPS-stimulated mouse RAW264.7 cells at 2 to 30 uM preincubated with compound for 1 hrs followed by LPS-stimulation and measured after 30 mins by Western blot analysis; format: cell-based; conditions: dose 2-30 µM, time 1.5 hrs
[12] = target: T3, Prostaglandin G/H synthase 2 (Homo sapiens, UniProt P35354); experiment: Inhibition of recombinant human COX-2 using arachidonic acid as substrate preincubated with compound for 5 mins followed by substrate addition and measured after 2 mins by fluorescence spectrum analysis
T3 sequence (P35354 whole entry): T2 sequence (whole entry)

[13] = test system: RAW264.7; experiment: Cytotoxicity against mouse RAW264.7 cells assessed as reduction in cell survival upto 50 uM incubated for 48 to 72 hrs by MTT assay; format: toxicity, cell-based; conditions: raw264.7, 50 µM, time 48-72 hrs
[14] = target: T4, Prostaglandin G/H synthase 2 (Ovis aries, UniProt P79208); experiment: Inhibition of ovine COX-2 assessed as reduction in PGF2alpha production by enzyme immunoassay
T4 sequence (P79208 whole entry): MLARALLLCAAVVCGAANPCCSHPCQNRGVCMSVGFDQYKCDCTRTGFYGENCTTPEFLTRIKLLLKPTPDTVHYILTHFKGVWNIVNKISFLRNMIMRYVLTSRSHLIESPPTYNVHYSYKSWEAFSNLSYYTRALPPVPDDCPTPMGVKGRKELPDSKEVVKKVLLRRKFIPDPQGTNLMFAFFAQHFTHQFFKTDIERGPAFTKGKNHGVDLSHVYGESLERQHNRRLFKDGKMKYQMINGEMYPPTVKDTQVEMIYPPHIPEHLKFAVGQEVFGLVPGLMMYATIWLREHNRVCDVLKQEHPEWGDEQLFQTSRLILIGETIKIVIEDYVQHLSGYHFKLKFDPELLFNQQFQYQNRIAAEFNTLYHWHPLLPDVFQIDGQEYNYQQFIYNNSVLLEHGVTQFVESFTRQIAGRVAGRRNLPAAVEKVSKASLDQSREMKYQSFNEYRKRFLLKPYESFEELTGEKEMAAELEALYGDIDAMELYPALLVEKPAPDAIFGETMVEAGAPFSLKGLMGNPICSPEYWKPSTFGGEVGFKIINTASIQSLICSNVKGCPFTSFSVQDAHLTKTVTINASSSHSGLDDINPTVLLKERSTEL

[15] = target: T5, Prostaglandin G/H synthase 1 (Ovis aries, UniProt P05979); experiment: Inhibition of ovine COX-1 using arachidonic acid as substrate preincubated with compound for 5 mins followed by substrate addition and measured after 2 mins by fluorescence spectrum analysis
T5 sequence (P05979 whole entry): T1 sequence (whole entry)

[16] = test system: L02; experiment: Cytotoxicity against human L02 cells assessed as reduction in cell survival upto 50 uM incubated for 48 to 72 hrs by MTT assay; format: toxicity, cell-based; conditions: l02, 50 µM, time 48-72 hrs
[17] = test system: RAW264.7; experiment: Effect of NF-kappaB protein level in LPS-stimulated mouse RAW264.7 cells at 2 to 30 uM preincubated with compound for 1 hrs followed by LPS-stimulation and measured after 30 mins by Western blot analysis; format: functional, cell-based; conditions: dose 2-30 µM, time 1.5 hrs
[18] = target: T6, NF-kappa-B inhibitor alpha (Mus musculus) (UniProt Q9Z1E3); experiment: Inhibition of IkappaBalpha phosphorylation in LPS-stimulated mouse RAW264.7 cells preincubated with compound for 1 hrs followed by LPS-stimulation and measured after 30 mins by Western blot analysis; format: cell-based; conditions: dose 2-30 µM, time 1.5 hrs
T6 sequence (whole entry): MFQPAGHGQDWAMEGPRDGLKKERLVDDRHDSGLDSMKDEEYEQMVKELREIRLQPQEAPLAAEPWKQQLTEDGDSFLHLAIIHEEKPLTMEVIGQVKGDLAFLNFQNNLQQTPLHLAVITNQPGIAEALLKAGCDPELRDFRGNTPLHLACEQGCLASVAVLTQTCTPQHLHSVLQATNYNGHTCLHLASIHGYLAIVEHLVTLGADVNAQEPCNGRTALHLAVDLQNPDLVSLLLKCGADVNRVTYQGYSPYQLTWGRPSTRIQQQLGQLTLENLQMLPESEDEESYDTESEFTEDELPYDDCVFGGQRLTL

[19] = target: T7, Prostaglandin G/H synthase 2 (Mus musculus) (UniProt Q05769); experiment: Inhibition of COX-2 in mouse RAW264.7 cells assessed as suppression of LPS-induced PGE2 production at 2 to 30 uM incubated for 24 hrs by ELISA analysis; format: cell-based; conditions: dose 2-30 µM
T7 sequence (whole entry): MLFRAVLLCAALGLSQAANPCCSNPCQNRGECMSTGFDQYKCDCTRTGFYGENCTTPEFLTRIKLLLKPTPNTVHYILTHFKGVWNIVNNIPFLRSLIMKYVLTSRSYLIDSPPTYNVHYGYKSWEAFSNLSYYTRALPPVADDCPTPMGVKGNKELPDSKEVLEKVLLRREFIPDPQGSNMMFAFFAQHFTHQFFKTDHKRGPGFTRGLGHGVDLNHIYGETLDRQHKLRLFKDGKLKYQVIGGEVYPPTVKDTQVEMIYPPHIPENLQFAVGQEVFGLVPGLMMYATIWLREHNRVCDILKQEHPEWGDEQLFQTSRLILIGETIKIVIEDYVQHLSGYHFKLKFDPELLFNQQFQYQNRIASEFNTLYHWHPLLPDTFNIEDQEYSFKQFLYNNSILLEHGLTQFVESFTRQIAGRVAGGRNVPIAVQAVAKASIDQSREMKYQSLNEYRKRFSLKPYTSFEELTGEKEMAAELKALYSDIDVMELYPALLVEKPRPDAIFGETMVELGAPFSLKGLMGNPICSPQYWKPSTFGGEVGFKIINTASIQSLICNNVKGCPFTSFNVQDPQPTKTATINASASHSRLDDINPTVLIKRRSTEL

[20] = test system: L929; experiment: Cytotoxicity against mouse L929 cells assessed as reduction in cell survival upto 50 uM incubated for 48 to 72 hrs by MTT assay; format: toxicity, cell-based; conditions: l929, 50 µM, time 48-72 hrs
[21] = test system: RAW264.7; experiment: Anti-inflammatory activity in mouse RAW264.7 cells assessed as decrease in LPS-induced COX-2 protein expression incubated for 24 hrs by Western blot analysis; format: functional, cell-based; conditions: dose 2-10 µM
[22] = test system: RAW264.7; experiment: Anti-inflammatory activity in mouse RAW264.7 cells assessed as decrease in LPS-induced TNF-alpha production incubated for 24 hrs by ELISA analysis; format: functional, cell-based; conditions: dose 2-30 µM

inhibition [1]: Active | inhibition [2]: Active
SMILES: CCOC(=O)[C@H](CO)NC(=O)c1ccccc1

inhibition [1]: Active | inhibition [2]: Active
SMILES: CCOC(=O)[C@H](CO)NC(=O)c1cccc(O)c1

inhibition [1]: Active | inhibition [2]: Active
SMILES: CCOC(=O)[C@H](CO)NC(=O)c1ccc(O)cc1

Continued, compound first:

SMILES: CCOC(=O)[C@H](CO)NC(=O)c1cccc(O)c1O
Activity [3]: Dose-Dependent Effect | inhibition [4]: Dose-Dependent Effect | Activity [5]: Non-Toxic | Activity [6]: Non-Toxic | Activity [7]: Non-Toxic | Activity [8]: Dose-Dependent Effect | Activity [9]: Dose-Dependent Effect | Activity [10]: Dose-Dependent Effect | inhibition [11]: Active | IC50 [12]: 2220 nM | Activity [13]: Toxic | IC50 [14]: 2800 nM | IC50 [15]: 8890 nM | Activity [16]: Toxic | Activity [17]: inactive | inhibition [18]: Dose-Dependent Effect | inhibition [19]: Active | Activity [20]: Toxic | Activity [21]: Dose-Dependent Effect | Activity [22]: Dose-Dependent Effect

SMILES: CCOC(=O)[C@H](CO)NC(=O)c1ccccc1O
inhibition [1]: Active | inhibition [2]: Active
